Test [1] deals with Verticillium dahliae. Put plainly: Antifungal activity against Verticillium dahliae assessed as fungal growth inhibition at 0.76 mM incubated in dark for 48 hrs by microspectrophotometric analysis. The class given is functional, organism-based.
The test system of test [2] is Fusarium oxysporum. The test can be described thus: Antifungal activity against Fusarium oxysporum assessed as fungal growth inhibition at 0.76 mM incubated in dark for 48 hrs by microspectrophotometric analysis. It counts as functional, organism-based.
Test [3] deals with Botrytis cinerea. Put plainly: Antifungal activity against Botrytis cinerea assessed as fungal growth inhibition at 0.76 mM incubated in dark for 48 hrs by microspectrophotometric analysis. It counts as functional, organism-based.
In test [4] the test system is Botrytis cinerea. The test can be described thus: Antifungal activity against Botrytis cinerea assessed as fungal growth inhibition at 10 to 400 ug/mL incubated in dark for 48 hrs by microspectrophotometric analysis. It counts as functional.
The subject of test [5] is Botrytis cinerea. The test can be described thus: Antifungal activity against Botrytis cinerea assessed as fungal growth inhibition at 0.38 mM incubated in dark for 48 hrs by microspectrophotometric analysis. It counts as functional, organism-based.
The test system of test [6] is Verticillium dahliae. Put plainly: Antifungal activity against Verticillium dahliae assessed as fungal growth inhibition at 10 to 400 ug/mL incubated in dark for 48 hrs by microspectrophotometric analysis. It counts as functional.
Test [7] relates to Verticillium dahliae. Put plainly: Antifungal activity against Verticillium dahliae assessed as fungal growth inhibition at 0.38 mM incubated in dark for 48 hrs by microspectrophotometric analysis. It counts as functional, organism-based.
Test [8] relates to Fusarium oxysporum. Put plainly: Antifungal activity against Fusarium oxysporum assessed as fungal growth inhibition at 0.38 mM incubated in dark for 48 hrs by microspectrophotometric analysis. It counts as functional, organism-based.

Calls of active or inactive are those of the source. The rule behind the calls is not given here.

Regarding `COc1ccc(C2SSS[C@@]34C[C@]5(O)[C@H](O)C=C[C@@H](O)[C@@H]5ON3C(=O)[C@@H]2N(C)C4=O)c(O)c1OC` (stereo partly drawn), the “growth inhibition (GI)” value in test [1], in test [2], in test [3], in test [5], in test [7] and in test [8] was “Active” in each case. Further, the “growth inhibition (GI)” value in test [4] was determined as 57%; in test [6], 45%.

For the origin of these results see ChEMBL document CHEMBL4477195, “Bridged Epipolythiodiketopiperazines from Penicillium raciborskii, an Endophytic Fungus of Rhododendron tomentosum Harmaja” (2016).
